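Test compounds were applied to cells in 96-well plates for 48 hours at 5 doses. TGI: concentration producing complete growth inhibition.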
Columns and labels:
Assay in all cases: DTP human tumour cell line panel, 48 h
[1] = system: RPMI-8226 leukemia
[2] = system: UO-31 renal
[3] = system: CCRF-CEM leukemia
[4] = system: M14 melanoma
[5] = system: SF-539 CNS
[6] = system: UACC-257 melanoma
[7] = system: IGROV1 ovarian
[8] = system: A498 renal
[9] = system: HOP-62 NSCLC
[10] = system: MDA-MB-435
[11] = system: OVCAR-4 ovarian
[12] = system: U251 CNS
[13] = system: K-562 leukemia
[14] = system: CAKI-1 renal
[15] = system: MOLT-4 leukemia
[16] = system: MCF7 breast
[17] = system: OVCAR-8 ovarian
[18] = system: OVCAR-3 ovarian
[19] = system: NCI-H23 lung
[20] = system: NCI-H226 lung
[21] = system: SF-268 CNS
[22] = system: UACC-62 melanoma
[23] = system: T-47D breast
[24] = system: DU-145 prostate
[25] = system: HOP-92 NSCLC
[26] = system: NCI/ADR-RES ovarian
[27] = system: SK-OV-3 ovarian
[28] = system: SK-MEL-28 melanoma
[29] = system: SR leukemia
[30] = system: SNB-75 CNS
[31] = system: ACHN renal
[32] = system: EKVX NSCLC
[33] = system: SK-MEL-5 melanoma
[34] = system: TK-10 renal
[35] = system: PC-3 prostate
[36] = system: HT29 colon
[37] = system: NCI-H460 lung
[38] = system: SF-295 CNS
[39] = system: OVCAR-5 ovarian
[40] = system: MDA-MB-231 breast
[41] = system: HCT-15 colon
[42] = system: MDA-N
[43] = system: COLO 205 colon
[44] = system: SW-620 colon
[45] = system: SK-MEL-2 melanoma
[46] = system: KM12 colon
[47] = system: HCC-2998 colon
[48] = system: HS 578T breast
[49] = system: SNB-19 CNS
[50] = system: LOX IMVI melanoma
[51] = system: RXF 393 renal
[52] = system: MALME-3M melanoma
[53] = system: SN12C renal
[54] = system: 786-0 renal
[55] = system: HL-60(TB) leukemia
[56] = system: HCT-116 colon
[57] = system: NCI-H522 lung
[58] = system: A549 NSCLC

CC(=O)O[C@H]1CN(S(=O)(=O)c2ccc(C)cc2)C[C@@H]1C1CCCCC1
TGI [1]: 79.7 µM
TGI [2]: > 100 µM
TGI [3]: > 100 µM
TGI [4]: 37.3 µM
TGI [5]: 10.5 µM
TGI [6]: 48.3 µM
TGI [7]: 40.9 µM
TGI [8]: > 100 µM
TGI [9]: > 100 µM
TGI [10]: 70.5 µM
TGI [11]: > 100 µM
TGI [12]: > 100 µM
TGI [13]: > 100 µM
TGI [14]: 83.7 µM
TGI [15]: 62.7 µM
TGI [16]: 42.6 µM
TGI [17]: 73.2 µM
TGI [18]: 43.5 µM
TGI [19]: > 100 µM
TGI [20]: 48.9 µM
TGI [21]: 90.8 µM
TGI [22]: 61.7 µM
TGI [23]: > 100 µM
TGI [24]: > 100 µM
TGI [25]: 82.4 µM
TGI [26]: 58.5 µM
TGI [27]: > 100 µM
TGI [28]: 59 µM
TGI [29]: > 100 µM
TGI [30]: 63.1 µM
TGI [31]: > 100 µM
TGI [32]: 52.8 µM
TGI [33]: 31.9 µM
TGI [34]: 72.2 µM
TGI [35]: 58.5 µM
TGI [36]: 84.7 µM
TGI [37]: > 100 µM
TGI [38]: 32 µM
TGI [39]: > 100 µM
TGI [40]: 82.7 µM
TGI [41]: > 100 µM
TGI [42]: > 100 µM
TGI [43]: > 100 µM
TGI [44]: > 100 µM
TGI [45]: 37.7 µM
TGI [46]: 36.3 µM
TGI [47]: > 100 µM
TGI [48]: 37.8 µM
TGI [49]: > 100 µM
TGI [50]: 49.2 µM

CCNc1ncnc2c1nnn2CC
TGI [1]: > 100 µM
TGI [2]: > 100 µM
TGI [3]: > 100 µM
TGI [4]: > 100 µM
TGI [5]: > 100 µM
TGI [6]: > 100 µM
TGI [7]: > 100 µM
TGI [8]: > 100 µM
TGI [9]: > 100 µM
TGI [10]: > 100 µM
TGI [11]: > 100 µM
TGI [12]: > 100 µM
TGI [13]: > 100 µM
TGI [14]: > 100 µM
TGI [15]: > 100 µM
TGI [16]: > 100 µM
TGI [51]: > 100 µM
TGI [52]: > 100 µM
TGI [17]: > 100 µM
TGI [18]: > 100 µM
TGI [19]: > 100 µM
TGI [20]: > 100 µM
TGI [53]: > 100 µM
TGI [22]: > 100 µM
TGI [23]: > 100 µM
TGI [24]: > 100 µM
TGI [25]: > 100 µM
TGI [54]: > 100 µM
TGI [26]: > 100 µM
TGI [27]: > 100 µM
TGI [28]: > 100 µM
TGI [30]: > 100 µM
TGI [31]: > 100 µM
TGI [32]: > 100 µM
TGI [33]: > 100 µM
TGI [34]: > 100 µM
TGI [35]: > 100 µM
TGI [36]: > 100 µM
TGI [38]: > 100 µM
TGI [55]: > 100 µM
TGI [56]: > 100 µM
TGI [40]: > 100 µM
TGI [41]: > 100 µM
TGI [42]: > 100 µM
TGI [43]: > 100 µM
TGI [44]: > 100 µM
TGI [57]: > 100 µM
TGI [45]: > 100 µM
TGI [46]: > 100 µM
TGI [47]: > 100 µM
TGI [49]: > 100 µM
TGI [58]: > 100 µM
TGI [50]: > 100 µM

From PubChem BioAssay (NCI)
